Measured values as given in patent EP2653477B1, “SCORPION ACTIVE PEPTIDES AND PREPARATION METHODS AND APPLICATIONS THEREOF” (Wuhan More Biotechnology Co., Ltd., priority 2010, dated 2012).
Bridge positions count the residues as written; N and C are the ends. Peptide text beside a SMILES is read from it.

Tests used:
potassium channel Kv1.3 = target: T1, potassium channel Kv1.3 (Homo sapiens, UniProt P22001); assay: whole-cell patch clamp, inhibition of Kv1.3 current in transfected COS-7 cells; format: cell-based; conditions: potassium channel Kv1.3 in COS-7 cells, read-out: polypeptide concentrations that inhibit the current by half (IC50 value)
T1 construct: expressed in transfected cells; host or cells: COS-7 cells, selected with 0.8 mg/mL geneticin
Description: COS-7 cells were cultured in a DMEM medium containing 10% fetal calf serum, at 37° C, 5% CO2. The recombinant plasmids of potassium channel Kv1.3 were transfected by using a Sofast™ transfection kit, and the transfected cells were selectively cultured in a medium containing 0.8 mg/mL geneticin. The pharmacological activities of scorpion active polypeptides ADMR-011, ADMR-016, ADMR-019, ADMR-023 and ADMR-028 were tested and analyzed by using an instrument of whole-cell patch clamp (EPC-10 dual-channel patch clamp amplifier HEKA, Elektronik, Lambrecht, Germany). The setting of the experimental parameters, the collecting of data, and the applying of stimulus were all controlled by Pulse software (Elektronik, Lambrecht, Germany). The filter of the instrument was set to be 10 kHz (Bessel), and the electrode impedance was 2∼5 MΩ. After the formation of giga-seal (1∼5 GΩ) between the electrode and cell membrane, an automatic c-fast was performed, and the membrane was broken by slightly applying negative pressure, then an automatic c-slow was performed. At a holding potential of -70 mV, depolarizing pulses, incrementing in 10 mV steps, with a step width of 80 ms , were given to stimulate from -60 mV to +50 mV, and the condition of current was observed. The polypeptides ADMR-011, ADMR-016 and ADMR-019 were accurately perfused, which was achieved by MPS-2 (INBIO Inc, Wuhan, China) perfusing system. After dissolving the three scorpion active polypeptides, they were applied by spraying via DAD Drug Application System (ALA), and the tip of the tube for drug application was about 100 µm away from the cell being recorded.
It can be known from Figure 16 to Figure 20 that, the pharmacological activity of ADMR-011 on potassium channel Kvl.3 was 91 pM, the pharmacological activity of ADMR-016 on potassium channel Kvl.3 was 2.58 nM, the pharmacological activity of ADMR-019 on potassium channel Kv1.3 was 1.41 nM, and the pharmacological activity of ADMR-023 and ADMR-028 on potassium channel Kvl.3 were 0.49 nM and 0.65 nM, respectively. Therefore, they are polypeptides with potent activity that are currently found internationally.

Wistar rat EAE model = assay: EAE (multiple sclerosis) model in Wistar rats induced by GPSCH-CFA, clinical scoring; format: in vivo; conditions: 100 µg·kg^-1 subcutaneously once every day, x±s, n=10, score 0-5
Text: Experimental animals: female inbred line Wistar rats (6∼8 week old, body weigh 150±10 g) and guinea pigs (300∼400 g, purchased from Wuhan University Laboratory Animal Center) were selected.
Formulating a mixed emulsion of whole spinal cord homogenate - Freund's complete adjuvant (GPSCH-CFA): a guinea pig was executed, and the spinal cord was rapidly removed, and prepared into 50% PBS homogenate by a ultrasonic disruptor (Sonics & Materials Inc, America), which was mixed with equal amount of Freund's complete adjuvant (BCG vaccine 10 mg/ml), and was pushed back and forth with syringes until forming a water-in-oil emulsion.
Wistar rat EAE model induced by EAE: GPSCH-CFA emulsion was injected intradermally into the foot pads of both the hind legs of Wistar rats, or simultaneously injected intradermally about 1×10^10 pertussis vaccine. The rats were weighed every day, and observed for their neurological symptoms. Experimental autoimmune encephalomyelitis appeared after the rats had been raised for 2 weeks.
The rats with experimental autoimmune encephalomyelitis (EAE) were divided into […] groups randomly: normal control group (negative control group), model control group (model rats + normal saline), administration group A (model rats + ADMR-011 polypeptide), administration group B (model rats + ADMR-016 polypeptide), administration group C (model rats + ADMR-019 polypeptide), administration group D (model rats + ADMR-023 polypeptide), and administration group E (model rats + ADMR-028 polypeptide), 10 rats for each group. For the administration groups, polypeptides ADMR-011, ADMR-016, ADMR-019, ADMR-023 and ADMR-028 were injected subcutaneously respectively at a dose of 100 µg·kg^-1, once every day in the morning. For the normal control group and the model control group, equivalent amount of normal saline was injected subcutaneously, and administered continuously. […] The highest clinical score for each animal was recorded, and the average value of them was taken to be the average clinical score.
The scoring criteria were: without any clinical symptom, 0 point; disappearance of tension in the tail, and observable mild awkward gait, 1 point; weakness in both the hind limbs, which can recover after passive body flipping, 2 points; paralysis in both the hind limbs, which can not recover after passive body flipping, 3 points; tetraplegia accompanied by incontinence of urine and feces, 4 points; moribund state or death, 5 points. Table 1. Scores for rats of various experimental groups in the EAE model (-x±s)

rheumatoid arthritis = assay: pristane-induced rheumatoid arthritis in SD rats, joint score and hind foot plantar swelling; format: in vivo; design: key to Score of joint: clinical score 1-4: 1 joint red/swollen=1 ... severe whole-limb arthritis=4; conditions: x±s, n=10; for Score of joint: arthritis rats, polypeptides 100 µg·kg^-1 (methotrexate 1.75 µg·kg^-1) subcutaneously once every day, score 1-4; for The swelling degree after the inflammation: volume difference of hind foot before and after the modeling
Description: […] Female (♀) specific pathogen free (SPF) inbred line SD rats (Wuhan University Laboratory Animal Center), body weight 150±10 g, were selected, and pristane was injected intradermally at the base of the tail of rats in experimental groups at a dose of 0.2 ml/rat, after they were acclimatized in a clean-grade environment for 1 week. Rheumatoid arthritis appeared after the rats were raised for only 2 weeks.
The rats having arthritis were randomized into: normal control group (negative control group), model negative control group (model rat + normal saline), model positive control group (model rat + methotrexate), administration group A (model rat + ADMR-011 polypeptide), administration group B (model rat + ADMR-016 polypeptide), administration group C (model rat + ADMR-019 polypeptide), administration group D (model rat + ADMR-023 polypeptide), and administration group E (model rat + ADMR-028 polypeptide), 10 rats for each group. The administration groups were injected subcutaneously at a dose of 100 µg·kg^-1, once every day in the morning, and administered continuously; the normal control group and the model negative control group were injected subcutaneously with equivalent amount of normal saline; and the model positive control group were injected subcutaneously with methotrexate (MTX) at a dose of 1.75 µg·kg^-1, once every day, and administered continuously.
The highest clinical score for each animal was recorded, and the average value of them was taken to be the average clinical score. The scoring criteria were: one joint of a rat was red and swollen, 1 point; two joints of a rat were red and swollen, 2 points; all the joints of a rat were red and swollen, 3 points; severe arthritis in the entire limb of a rat, 4 points. Table 2. Arthritis scores for rats of various experimental groups (-x±s)
From day 8 of the experiment, the hind foot plantar volume of the rat was measured and recorded every other day for 21 consecutive days, and the swelling degree (mL) was calculated according to the volume difference before and after the modeling. Table 3. The swelling degree of rats in various experimental groups (-x±s)

Kunming mice = assay: toxicity study in mice, single intraperitoneal injection, 7 days observation; format: in vivo; conditions: 10 mg/kg intraperitoneally once (100 times the dose for animal model), observed 7 days
Description: 18∼20 g Kunming mice were selected, and divided into 4 groups, 8 male mice and 8 female mice for each group. The lyophilized powders of scorpion active polypeptides ADMR-011, ADMR-016, ADMR-019, ADMR-023 and ADMR-028 were dissolved with normal saline respectively, and the 3 groups of mice were injected intraperitoneally once respectively with polypeptide solution at a dose of 10 mg/kg (100 times of the dose for animal model), and the fourth group were injected with equivalent amount of normal saline as control.
After the administration, the respiration, motor and heartbeat in animals of all the groups were all normal, without significant abnormal reaction. 7 days after the administration, all the animals were conducted gross anatomy to observe the volume, color and texture of the main organs (heart, liver, spleen, lung, and kidney), and there was no macroscopic lesion. There were no significant difference between the 3 administration groups and the normal saline group.

T1 sequence (P22001 whole entry): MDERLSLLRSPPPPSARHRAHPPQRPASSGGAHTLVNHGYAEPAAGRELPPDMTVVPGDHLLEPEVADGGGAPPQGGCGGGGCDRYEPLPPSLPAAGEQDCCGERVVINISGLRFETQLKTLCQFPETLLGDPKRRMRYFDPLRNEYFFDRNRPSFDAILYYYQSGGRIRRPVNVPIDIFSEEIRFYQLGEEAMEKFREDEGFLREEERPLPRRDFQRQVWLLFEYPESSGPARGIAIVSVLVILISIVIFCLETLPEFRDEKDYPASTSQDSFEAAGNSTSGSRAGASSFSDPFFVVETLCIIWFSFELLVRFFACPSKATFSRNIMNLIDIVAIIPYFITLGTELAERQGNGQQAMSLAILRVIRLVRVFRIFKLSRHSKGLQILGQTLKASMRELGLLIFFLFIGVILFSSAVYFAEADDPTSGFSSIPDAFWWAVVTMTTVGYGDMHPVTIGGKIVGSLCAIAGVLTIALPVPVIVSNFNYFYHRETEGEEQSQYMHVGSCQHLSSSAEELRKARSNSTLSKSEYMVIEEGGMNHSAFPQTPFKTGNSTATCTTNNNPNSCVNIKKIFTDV

Row | Structure (SMILES) | IC50 (potassium channel Kv1.3) [nM] | Average clinical scores (Wistar rat EAE model; 8 d) | Average clinical scores (Wistar rat EAE model; 10 d) | Average clinical scores (Wistar rat EAE model; 12 d) | Average clinical scores (Wistar rat EAE model; 14 d) | Score of joint (rheumatoid arthritis; 10 d) | Score of joint (rheumatoid arthritis; 15 d) | Score of joint (rheumatoid arthritis; 21 d) | The swelling degree after the inflammation (rheumatoid arthritis; d8) [mL] | The swelling degree after the inflammation (rheumatoid arthritis; d15) [mL] | The swelling degree after the inflammation (rheumatoid arthritis; d22) [mL] | The swelling degree after the inflammation (rheumatoid arthritis; d28) [mL] | toxicity in mice (Kunming mice)
1 | CC[C@H](C)[C@H](NC(=O)CNC(=O)[C@@H](N)C(C)C)C(=O)N[C@@H](CC(N)=O)C(=O)N[C@H](C(=O)N[C@@H](CCC(N)=O)C(=O)N[C@H]1CSSC[C@@H]2NC(=O)[C@H](CCC(N)=O)NC(=O)CNC(=O)[C@H](Cc3ccccc3)NC(=O)[C@H](CCCNC(=N)N)NC(=O)[C@H](CCSC)NC(=O)CNC(=O)[C@H](C)NC(=O)[C@H](CC(=O)O)NC(=O)[C@H](CCCCN)NC(=O)[C@@H]3CSSC[C@@H](C(=O)N[C@H](C(=O)N4CCC[C@H]4C(=O)N[C@@H](CCCCN)C(=O)O)[C@@H](C)O)NC(=O)[C@H](CC(=O)O)NC(=O)[C@H](CSSC[C@H](NC(=O)[C@H](CCC(N)=O)NC(=O)[C@H](CCCNC(=N)N)NC(=O)[C@H](CO)NC(=O)CNC(=O)[C@H](CC(N)=O)NC1=O)C(=O)N[C@@H](CC(C)C)C(=O)N[C@@H](CCCCN)C(=O)N1CCC[C@H]1C(=O)N3)NC(=O)[C@H]([C@@H](C)O)NC(=O)CNC(=O)[C@H](CC(N)=O)NC(=O)[C@H]([C@@H](C)CC)NC2=O)C(C)C [ADMR-019] (H-VGINVQCNGSRQCLKPCKDAGMRFGQCINGTCDCTPK-OH; disulfide 7-27, 13-32, 17-34 (inferred); N-terminus and C-terminus assumed) | 1.41 | 0.53±0.16 | 0.93±0.46 | 1.19±0.51 | 1.37±0.34 | 1.78±0.48 | 2.17±0.55 | 1.81±0.77 | 0.034 ± 0.011 | 0.27 ± 0.07 | 0.34 ± 0.11 | 0.37 ± 0.13 | no significant toxicity
2 | CC[C@H](C)[C@H](NC(=O)CNC(=O)[C@@H](N)C(C)C)C(=O)N[C@@H](CC(N)=O)C(=O)N[C@H](C(=O)N[C@@H](CCC(N)=O)C(=O)N[C@H]1CSSC[C@@H]2NC(=O)[C@H](CCC(N)=O)NC(=O)CNC(=O)[C@H](Cc3ccccc3)NC(=O)[C@H](CCCNC(=N)N)NC(=O)[C@H](CCSC)NC(=O)CNC(=O)[C@H](C)NC(=O)[C@H](CC(=O)O)NC(=O)[C@H](CCCCN)NC(=O)[C@@H]3CSSC[C@@H](C(=O)N[C@H](C(=O)N4CCC[C@H]4C(=O)N[C@@H](CCCCN)C(=O)O)[C@@H](C)O)NC(=O)[C@H](CC(=O)O)NC(=O)[C@H](CSSC[C@H](NC(=O)[C@H](CCC(N)=O)NC(=O)CNC(=O)[C@H](CO)NC(=O)[C@H](Cc4c[nH]cn4)NC(=O)[C@H](CC(N)=O)NC1=O)C(=O)N[C@@H](CC(C)C)C(=O)N[C@@H](CCCCN)C(=O)N1CCC[C@H]1C(=O)N3)NC(=O)[C@H](CCCCN)NC(=O)CNC(=O)[C@H](CC(N)=O)NC(=O)[C@H]([C@@H](C)CC)NC2=O)C(C)C [ADMR-023] (H-VGINVQCNHSGQCLKPCKDAGMRFGQCINGKCDCTPK-OH; disulfide 7-27, 13-32, 17-34 (inferred); N-terminus and C-terminus assumed) | 0.49 | 0.55±0.19 | 0.81±0.29 | 1.21±0.25 | 1.17±0.27 | 1.69±0.23 | 2.23±0.71 | 1.85±0.59 | 0.035 ± 0.010 | 0.25 ± 0.08 | 0.32 ± 0.14 | 0.29 ± 0.15 | no significant toxicity
